US10689365B2, “Substituted 2-alkylimidazolylcarboxamides as pesticides” (Bayer CropScience Aktiengesellschaft, priority 2016, dated 2020)
Read-outs that look alike come from different tables or passages of the source.

Legend:
Myzus persicae [1] = experiment: Myzus persicae - spray test (Chinese cabbage leaf discs); type: in vivo; conditions: for pest or weed control at 500 g/ha: Myzus persicae, foliar, read-out: efficacy
Procedure: Myzus persicae—Spray Test
Solvent: 78 parts by weight of acetone • • 1.5 parts by weight of dimethylformamide
Emulsifier: alkylaryl polyglycol ether
To produce a suitable active compound preparation, 1 part by weight of active compound is dissolved using the stated parts by weight of solvent and made up with water containing an emulsifier concentration of 1000 ppm until the desired concentration is attained. To produce further test concentrations, the formulation is diluted with emulsifier-containing water.
Discs of Chinese cabbage leaves (Brassica pekinensis) infested by all stages of the green peach aphid (Myzus persicae) are sprayed with an active ingredient formulation of the desired concentration.
After 5-6 days, the efficacy in % is determined. 100% means that all the aphids have been killed; 0% means that no aphids have been killed.

Myzus persicae [2] = experiment: Myzus persicae - oral test; type: in vivo; conditions: for pest or weed control at 20 ppm: Myzus persicae, po, 120 h, read-out: efficacy
Procedure: Solvent: 100 parts by weight of acetone
To produce a suitable preparation of active compound, 1 part by weight of active compound is dissolved using the specified parts by weight of solvent and made up with water until the desired concentration is attained.
50 μl of the active compound preparation are transferred into microtitre plates and made up to a final volume of 200 μl with 150 μl of IPL41 insect medium (33%+15% sugar). Subsequently, the plates are sealed with parafilm, which a mixed population of green peach aphids (Myzus persicae) within a second microtitre plate is able to puncture and imbibe the solution through it.
After 5 days, the efficacy in % is determined. 100% means that all the aphids have been killed; 0% means that no aphids have been killed.

[3] = log P by HPLC on reversed-phase (C18) columns, OECD Guideline 117; type: physicochemical; conditions: for chromatographic logP: reversed-phase (C18) HPLC column
Procedure: The log P values were determined in accordance with OECD Guideline 117 (EC Directive 92/69/EEC) by HPLC (high-performance liquid chromatography) using reversed-phase (RP) columns (C18), by the following methods:
[a] The LC-MS determination in the acidic range was carried out at pH 2.7 with 0.1% aqueous formic acid and acetonitrile (contains 0.1% formic acid) as mobile phases; linear gradient from 10% acetonitrile to 95% acetonitrile.
[b] LC-MS determination in the neutral range was carried out at pH 7.8 with 0.001 molar aqueous ammonium hydrogencarbonate solution and acetonitrile as mobile phases; linear gradient from 10% acetonitrile to 95% acetonitrile.

[4] = application rate 500 g/ha, after 5-6 days
[5] = application rate 20 ppm, after 5 days
[6] = neutral range, pH 7.8, aqueous ammonium hydrogencarbonate/acetonitrile
[7] = acidic range, pH 2.7, 0.1% aqueous formic acid/acetonitrile
[8] = acidic range, pH 2.7, 0.1% aqueous formic acid/acetonitrile, read-out: logP[a]
[9] = neutral range, pH 7.8, aqueous ammonium hydrogencarbonate/acetonitrile, read-out: logP[n]

Row | logP[n] [3, 6] | logP[a] [3, 7] | Structure (SMILES) | efficacy (Myzus persicae [1]; [4]) [%] | efficacy (Myzus persicae [2]; [5]) [%] | other results
1 | – | 0.85 | CN(C(=O)c1cnc(C(O)c2ccccc2Cl)n1C)c1cccnc1 (racemic) [Example I-1-13] | 100 | 100 | –
2 | 1.56 | 1.01 | CN(C(=O)c1cnc(C(O)c2cccc(Cl)c2)n1C)c1cccnc1 (racemic) [Example I-1-14] | 90 | 100 | –
3 | 1.56 | 1.11 | CN(C(=O)c1cnc(C(O)c2ccc(Cl)cc2)n1C)c1cccnc1 (racemic) [Example I-1-15] | 100 | 100 | –
4 | 1.87 | 1.42 | CN(C(=O)c1cnc(C(O)c2ccc(Cl)c(Cl)c2)n1C)c1cccnc1 (racemic) [Example I-1-16] | 100 | 100 | –
5 | 0.68 | – | CN(C(=O)c1cnc(Cc2ncccn2)n1C)c1cccnc1 [Example I-1-4] | 100 | 100 | –
6 | 1.29 | 0.67 | CN(C(=O)c1cnc(COCC2CC2)n1C)c1cccnc1 [Example I-1-23] | 100 | 100 | –
7 | 2.02 | 1.69 | CN(C(=O)c1cnc(COc2cccc(Cl)c2)n1C)c1cccnc1 [Example I-1-24] | 100 | 90 | –
8 | 1.63 | 1.10 | CN(C(=O)c1cnc(COCc2ccccc2)n1C)c1cccnc1 [Example I-1-25] | 90 | 100 | –
9 | 2.00 | 1.63 | CN(C(=O)c1cnc(COc2ccc(Cl)cc2)n1C)c1cccnc1 [Example I-1-62] | 100 | 100 | –
10 | 1.36 | 0.84 | CN(C(=O)c1cnc(COCC(F)(F)F)n1C)c1cccnc1 [Example I-1-63] | 90 | 100 | –

The next lines start with the compound.

Row | Structure (SMILES) | logP[n] [3, 6] | logP[a] [3, 7] | efficacy (Myzus persicae [1]; [4]) [%] | efficacy (Myzus persicae [2]; [5]) [%] | other results
11 | CC(O)c1ncc(C(=O)N(C)c2cccnc2)n1C (racemic) [Example I-1-9] | 0.45 | – | 100 | 100 | –
12 | CC(C)C(O)c1ncc(C(=O)N(C)c2cccnc2)n1C (racemic) [Example I-1-11] | – | 0.18 | 90 | 100 | –
13 | CN(C(=O)c1cnc(C(O)c2ccccn2)n1C)c1cccnc1 (racemic) [Example I-1-17] | 0.71 | 0.02 | 100 | 100 | –
14 | CN(C(=O)c1cnc(C(O)c2cccnc2)n1C)c1cccnc1 (racemic) [Example I-1-18] | 0.60 | – | 90 | 100 | –
15 | CN(C(=O)c1cnc(C(O)c2ccncc2)n1C)c1cccnc1 (racemic) [Example I-1-19] | 0.54 | – | 90 | 100 | –
16 | CN(C(=O)c1cnc(C(O)c2cnccc2Cl)n1C)c1cccnc1 (racemic) [Example I-1-20] | 1.07 | 0.59 | 90 | 100 | –
17 | CN(C(=O)c1cnc(C(O)c2ncccn2)n1C)c1cccnc1 (racemic) [Example I-1-21] | 0.40 | – | 100 | 100 | –
18 | CC(C)CC(O)c1ncc(C(=O)N(C)c2cccnc2)n1C (racemic) [Example I-1-60] | 1.26 | 0.60 | 90 | 100 | –
19 | CC(C)CCC(O)c1ncc(C(=O)N(C)c2cccnc2)n1C (racemic) [Example I-1-61] | 1.53 | 0.92 | 90 | 100 | –
20 | CN(C(=O)c1cnc(Cc2ccccc2)n1C)c1cccnc1 [Example I-1-3, 2-Benzyl-N,1-dimethyl-N-(pyridin-3-yl)-1H-imidazole-5-carboxamide] | – | – | – | – | pest or weed control at 500 g/ha (Myzus persicae [1]; [4]): 100%; pest or weed control at 20 ppm (Myzus persicae [2]; [5]): 90%; chromatographic logP [3, 8]: 0.64; chromatographic logP [3, 9]: 1.48
21 | CN(C(=O)c1cnc(CCc2ccccc2)n1C)c1cccnc1 [Example I-1-5, N,1-Dimethyl-2-(phenylethyl)-N-(pyridin-3-yl)-1H-imidazole-5-carboxamide] | – | – | – | – | pest or weed control at 500 g/ha (Myzus persicae [1]; [4]): 100%; pest or weed control at 20 ppm (Myzus persicae [2]; [5]): 100%; chromatographic logP [3, 8]: 0.66; chromatographic logP [3, 9]: 1.58
22 | C=Cc1ncc(C(=O)N(C)c2cccnc2)n1C [Example I-1-6, N,1-Dimethyl-N-(pyridin-3-yl)-2-vinyl-1H-imidazole-5-carboxamide] | – | – | – | – | pest or weed control at 500 g/ha (Myzus persicae [1]; [4]): 100%; pest or weed control at 20 ppm (Myzus persicae [2]; [5]): 100%
23 | CN(C(=O)c1cnc(CO)n1C)c1cccnc1 [Example I-1-7, 2-(Hydroxymethyl)-N,1-dimethyl-N-(pyridin-3-yl)-1H-imidazole-5-carboxamide] | – | – | – | – | pest or weed control at 500 g/ha (Myzus persicae [1]; [4]): 100%; pest or weed control at 20 ppm (Myzus persicae [2]; [5]): 100%; chromatographic logP [3, 9]: 0.28
24 | CCN(C(=O)c1cnc(CO)n1C)c1cccnc1 [Example I-1-8] | 0.63 | −0.16 | – | 90 | –
25 | CN(C(=O)c1cnc(C(C)(C)O)n1C)c1cccnc1 [Example I-1-10, 2-(2-Hydroxypropan-2-yl)-N,1-dimethyl-N-(pyridin-3-yl)-1H-imidazole-5-carboxamide] | – | – | – | – | pest or weed control at 500 g/ha (Myzus persicae [1]): 90%; pest or weed control at 20 ppm (Myzus persicae [2]): 70%; chromatographic logP [3, 9]: 0.57
26 | CN(C(=O)c1cnc(C(O)c2ccccc2)n1C)c1cccnc1 (centres unmarked) [Example I-1-12, 2-[Hydroxy(phenyl)methyl]-N,1-dimethyl-N-(pyridin-3-yl)-1H-imidazole-5-carboxamide] | – | – | – | – | pest or weed control at 500 g/ha (Myzus persicae [1]): 90%; pest or weed control at 20 ppm (Myzus persicae [2]): 100%; chromatographic logP [3, 8]: 0.52; chromatographic logP [3, 9]: 1.23
27 | COCc1ncc(C(=O)N(C)c2cccnc2)n1C [Example I-1-22, 2-(Methoxymethyl)-N,1-dimethyl-N-(pyridin-3-yl)-1H-imidazole-5-carboxamide] | – | – | – | – | pest or weed control at 500 g/ha (Myzus persicae [1]; [4]): 100%; pest or weed control at 20 ppm (Myzus persicae [2]; [5]): 100%; chromatographic logP [3, 9]: 0.63
28 | CC(C)CS(=O)(=O)Cc1ncc(C(=O)N(C)c2ccc[n+]([O-])c2)n1C [Example I-1-55, 2-[(Isobutylsulphonyl)methyl]-N,1-dimethyl-N-(1-oxidopyridin-3-yl)-1H-imidazole-5-carboxamide] | – | – | – | – | chromatographic logP [3, 8]: 0.68; chromatographic logP [3, 9]: 0.77
29 | C=Cc1ncc(C(=O)N(CC)c2cccnc2)n1C [Example I-1-56] | 1.10 | 0.18 | 90 | 90 | –
30 | C=C(C)c1ncc(C(=O)N(C)c2cccnc2)n1C [Example I-1-57] | 1.05 | 0.10 | 90 | – | –
31 | C/C=C/c1ncc(C(=O)N(C)c2cccnc2)n1C [Example I-1-58] | 1.08 | – | 90 | – | –
32 | C/C=C\c1ncc(C(=O)N(C)c2cccnc2)n1C [Example I-1-59] | 1.11 | – | 90 | – | –
33 | Cn1c(C(=O)N(c2cccnc2)C2CC2)cnc1CO [Example I-1-66] | 0.61 | – | – | 70 | –
34 | CN(C(=O)c1cnc(C(OCC(F)(F)F)C(F)(F)F)n1C)c1cccnc1 (centres unmarked) [Example I-1-67, N,1-Dimethyl-N-(pyridin-3-yl)-2-[2,2,2-trifluoro-1-(2,2,2-trifluoroethoxy)ethyl]-1H-imidazole-5-carboxamide] | – | – | – | – | pest or weed control at 500 g/ha (Myzus persicae [1]; [4]): 70%; chromatographic logP [3, 8]: 1.72; chromatographic logP [3, 9]: 1.86
35 | CN(C(=O)c1cnc(C(O)C(Cl)(Cl)Cl)n1C)c1cccnc1 (centres unmarked) [Example I-1-68] | 1.21 | 1.02 | – | – | –
36 | CN(C(=O)c1cnc(Cn2ncn(C3CC3)c2=O)n1C)c1cccnc1 [Example I-1-69] | 0.59 | 0.22 | 70 | – | –
37 | CN(C(=O)c1cnc(Cn2ncn(C)c2=O)n1C)c1cccnc1 [Example I-1-70] | 0.37 | – | – | – | –
38 | CN(C(=O)c1cnc(CCl)n1C)c1cccnc1 [III-1-1, 2-(Chloromethyl)-N,1-dimethyl-N-(pyridin-3-yl)-1H-imidazole-5-carboxamide] | – | – | – | – | chromatographic logP [3, 9]: 0.89
39 | CN(C(=O)c1cnc(C#Cc2ccccc2)n1C)c1cccnc1 [IV-1-1, N,1-Dimethyl-2-(phenylethinyl)-N-(pyridin-3-yl)-1H-imidazole-5-carboxamide] | – | – | – | – | chromatographic logP [3, 8]: 1.86; chromatographic logP [3, 9]: 1.98
